Measurements: patent US11186564B2, “Dual NAV1.2/5HT2a inhibitors for treating CNS disorders” (Sunovion Pharmaceuticals Inc., priority 2016, dated 2021)
Read-outs that look alike come from different tables or passages of the source.

What was measured:
[1] = biological target: human sodium channel NaV1.2 (Homo sapiens, UniProt Q99250); test: NaV1.2 inhibition, automated patch-clamp (Q-Patch HTX), slow inactivated state (state C); format: cell-based; conditions: hNaV1.2 CHO cells, slow inactivated state; for inhibition at 1 µM: 1 μM compound, read-out: NaV1.2 (% inh), 1 μM; for IC50: read-out: NaV1.2 IC50; for inhibition at 10 µM: 10 μM compound, read-out: NaV1.2 (% inh), 10 μM
human sodium channel NaV1.2, sequence (Q99250 whole entry): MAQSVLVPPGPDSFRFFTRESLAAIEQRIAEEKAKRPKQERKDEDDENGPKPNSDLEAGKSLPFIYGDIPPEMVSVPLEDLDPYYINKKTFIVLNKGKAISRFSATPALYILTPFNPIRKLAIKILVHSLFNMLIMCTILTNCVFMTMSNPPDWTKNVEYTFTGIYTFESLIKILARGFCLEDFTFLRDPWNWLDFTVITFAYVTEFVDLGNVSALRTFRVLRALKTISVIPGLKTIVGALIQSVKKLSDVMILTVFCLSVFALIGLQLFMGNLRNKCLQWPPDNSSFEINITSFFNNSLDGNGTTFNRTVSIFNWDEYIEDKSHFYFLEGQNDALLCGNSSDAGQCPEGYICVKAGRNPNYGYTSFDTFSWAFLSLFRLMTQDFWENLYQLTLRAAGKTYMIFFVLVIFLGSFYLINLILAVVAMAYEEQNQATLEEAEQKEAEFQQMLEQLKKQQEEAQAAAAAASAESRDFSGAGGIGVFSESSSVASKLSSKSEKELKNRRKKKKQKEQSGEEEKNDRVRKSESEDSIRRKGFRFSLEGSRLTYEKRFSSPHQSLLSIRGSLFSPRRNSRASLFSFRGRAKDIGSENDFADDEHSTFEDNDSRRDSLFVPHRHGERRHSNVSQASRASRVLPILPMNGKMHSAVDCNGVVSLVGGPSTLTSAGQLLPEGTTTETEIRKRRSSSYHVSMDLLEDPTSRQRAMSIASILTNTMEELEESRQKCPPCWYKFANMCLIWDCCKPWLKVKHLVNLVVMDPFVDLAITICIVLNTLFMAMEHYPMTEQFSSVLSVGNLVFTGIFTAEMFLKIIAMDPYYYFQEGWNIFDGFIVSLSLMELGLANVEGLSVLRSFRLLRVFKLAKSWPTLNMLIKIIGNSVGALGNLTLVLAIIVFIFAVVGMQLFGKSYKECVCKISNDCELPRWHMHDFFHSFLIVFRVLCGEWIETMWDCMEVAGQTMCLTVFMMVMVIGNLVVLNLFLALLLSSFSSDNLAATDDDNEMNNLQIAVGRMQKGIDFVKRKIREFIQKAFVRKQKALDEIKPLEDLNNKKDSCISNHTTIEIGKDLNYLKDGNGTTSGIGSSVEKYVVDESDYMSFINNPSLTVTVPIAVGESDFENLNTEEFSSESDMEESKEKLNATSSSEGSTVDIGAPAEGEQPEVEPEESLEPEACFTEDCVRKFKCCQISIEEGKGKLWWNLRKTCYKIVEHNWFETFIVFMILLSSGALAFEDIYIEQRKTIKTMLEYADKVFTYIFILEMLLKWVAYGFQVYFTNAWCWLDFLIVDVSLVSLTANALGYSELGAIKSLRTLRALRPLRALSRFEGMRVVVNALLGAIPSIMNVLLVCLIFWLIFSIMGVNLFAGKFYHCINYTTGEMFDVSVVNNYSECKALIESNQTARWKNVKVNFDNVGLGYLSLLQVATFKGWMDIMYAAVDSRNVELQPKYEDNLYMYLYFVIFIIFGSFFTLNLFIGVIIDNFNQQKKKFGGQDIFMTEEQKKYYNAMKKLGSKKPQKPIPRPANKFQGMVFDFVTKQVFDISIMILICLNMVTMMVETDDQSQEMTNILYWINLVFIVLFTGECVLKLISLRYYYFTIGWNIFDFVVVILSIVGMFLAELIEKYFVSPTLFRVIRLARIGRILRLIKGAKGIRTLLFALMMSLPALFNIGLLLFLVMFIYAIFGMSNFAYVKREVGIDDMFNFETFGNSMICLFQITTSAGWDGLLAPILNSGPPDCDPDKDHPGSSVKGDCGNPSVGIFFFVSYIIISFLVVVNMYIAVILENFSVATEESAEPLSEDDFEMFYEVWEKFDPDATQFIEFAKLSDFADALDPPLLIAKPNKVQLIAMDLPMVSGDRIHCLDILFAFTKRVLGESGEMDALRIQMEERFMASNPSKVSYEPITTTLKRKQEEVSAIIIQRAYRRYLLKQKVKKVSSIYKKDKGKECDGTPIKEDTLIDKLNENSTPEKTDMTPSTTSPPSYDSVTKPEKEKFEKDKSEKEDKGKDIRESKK
In short: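 IC50 comes from a least-squares fit of percent inhibition, relative to vehicle, of current in the slow-inactivated state. That state is reached by a 10 s prepulse to −50 mV, then 15 ms at −90 mV, then a 5 ms test pulse to 0 mV. Human NaV1.2 in stable CHO K-1 cells, held at −100 mV, automated patch clamp.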

[2] = biological target: T1, recombinant human serotonin receptor 5-HT2A (Homo sapiens, UniProt P28223); test: 5-HT2A antagonist Ca2+ assay in CHO-K1 cells (method A aequorin luminescence / method B FLIPR fluorescence); format: cell-based; conditions: antagonist mode vs EC80 of reference agonist, method A or B
T1 construct: expressed in transfected cells; method B: loaded with Ca2+ dye
T1 sequence (P28223 whole entry): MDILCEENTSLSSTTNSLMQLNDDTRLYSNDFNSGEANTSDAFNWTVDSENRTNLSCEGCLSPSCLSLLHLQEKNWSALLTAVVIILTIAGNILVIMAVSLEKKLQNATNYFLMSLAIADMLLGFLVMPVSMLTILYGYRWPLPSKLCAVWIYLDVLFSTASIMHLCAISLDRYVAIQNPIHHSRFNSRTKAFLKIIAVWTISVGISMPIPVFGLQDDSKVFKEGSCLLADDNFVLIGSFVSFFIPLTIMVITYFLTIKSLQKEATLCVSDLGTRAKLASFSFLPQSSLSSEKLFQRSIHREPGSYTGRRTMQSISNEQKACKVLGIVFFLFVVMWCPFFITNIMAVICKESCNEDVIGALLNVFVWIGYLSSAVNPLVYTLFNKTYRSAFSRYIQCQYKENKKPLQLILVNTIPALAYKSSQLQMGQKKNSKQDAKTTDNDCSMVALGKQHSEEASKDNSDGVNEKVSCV
In short: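 IC50 was obtained by nonlinear regression of percent inhibition of the EC80 agonist Ca2+ response in CHO-K1 cells stably expressing human 5-HT2A. The readout was aequorin luminescence with agonist injected 15 min after compound (A), or Ca2+-dye fluorescence on FLIPR with serotonin as agonist (B).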

inhibition at 1 µM [1] [%] | inhibition at 10 µM [1] [%] | SMILES | IC50 ([2]; read-out: 5HT2A IC50) [µM] | IC50 [1] [nM] | IC50 ([2]; 5HT2A IC50, μM) [µM]
13 | – | O=C1CCC(c2ccc(F)cc2)=NN1CN1CCC(Oc2ccc(F)cc2)CC1 [Example 167, 2-((4-(4-fluorophenoxy)piperidin-1-yl)methyl)-6-(4-fluorophenyl)-4,5-dihydropyridazin-3(2H)-one] | 0.09 | – | –
-15 | – | Fc1ccc(OC2CCN(CC3Cc4ccncc4C3)CC2)cc1 (stereo not shown) [Example 158, 6-((4-(4-fluorophenoxy)piperidin-1-yl)methyl)-6,7-dihydro-5H-cyclopenta[c]pyridine] | 0.15 | – | –
– | – | CC(=O)Nc1ccc(OCC(O)CN2CCN(c3ccc(C)c(Cl)c3)CC2)cc1 (stereo not shown) [Example 90, N-(4-(3-(4-(3-chloro-4-methylphenyl)piperazin-1-yl)-2-hydroxypropoxy)phenyl)acetamide] | 0.01 | 59500 | –
– | – | CN(C)c1ccc2c(c1)C(CN1CCC(Oc3ccc(F)cc3)CC1)CC2 (stereo not shown) [Example 116, 3-((4-(4-fluorophenoxy)piperidin-1-yl)methyl)-N,N-dimethyl-2,3-dihydro-1H-inden-5-amine] | 0.01 | 2340 | –
34 | – | Fc1ccc(OC2CCN(CCC3CCc4ncccc43)CC2)cc1 (stereo not shown) [Example 172, 5-(2-(4-(4-fluorophenoxy)piperidin-1-yl)ethyl)-6,7-dihydro-5H-cyclopenta[b]pyridine] | 0.12 | – | –
– | – | O[C@@H](COC1CCCCC1)CN1CCC2(CCc3ccccc3O2)CC1 [Example 438, (R)-1-(cyclohexyloxy)-3-(spiro[chromane-2,4′-piperidin]-1′-yl)propan-2-ol] | 0.15 | 1310 | –
– | – | Fc1ccc(OC2CCN(CC3CCc4cccc(F)c43)CC2)cc1 (stereo not shown) [Example 119, 1-((7-fluoro-2,3-dihydro-1H-inden-1-yl)methyl)-4-(4-fluorophenoxy)piperidine] | 0.02 | 180 | –
– | 14 | O=C1c2ccncc2CCN1CCN1CCC(Oc2ccc(F)cc2)CC1 [Example 203, 2-(2-(4-(4-fluorophenoxy)piperidin-1-yl)ethyl)-3,4-dihydro-2,6-naphthyridin-1(2H)-one] | 0.07 | – | –
– | – | c1ccc(O[C@H]2COC3(CCN(C[C@H]4CCc5ccccc54)CC3)C2)cc1 (single isomer, unassigned) [Compound 381] | 0.02 | 290 | –
– | – | c1ccc(OCCN2CCN(c3nsc4ccccc34)CC2)cc1 [Example 70, 3-(4-(2-phenoxyethyl)piperazin-1-yl)benzo[d]isothiazole] | 0.004 | 1700 | –
– | – | OC(CO[C@H]1CCc2ccccc21)CN1CC[C@@H](Oc2ccc(F)cc2)C1 (stereo partly drawn) [Example 42, 1-(((S)-2,3-dihydro-1H-inden-1-yl)oxy)-3-((R)-3-(4-fluorophenoxy)pyrrolidin-1-yl)propan-2-ol] | 0.83 | 750 | –
– | – | Fc1ccc(OC2CCN(CC3CCOc4ccccc43)CC2)cc1 (stereo not shown) [Example 165, 1-(chroman-4-ylmethyl)-4-(4-fluorophenoxy)piperidine] | 0.02 | 910 | –
– | 83 | O=C1c2ccccc2CCN1CCN1CC[C@@H](Oc2ccc(F)cc2)C1 [Example 25, (R)-2-(2-(3-(4-fluorophenoxy)pyrrolidin-1-yl)ethyl)-3,4-dihydroisoquinolin-1(2H)-one] | 0.17 | – | –
– | – | O=C1c2ccccc2CCN1CCCN1CCC(Oc2ccc(F)cc2)CC1 [Example 222, 2-(3-(4-(4-fluorophenoxy)piperidin-1-yl)propyl)-3,4-dihydroisoquinolin-1(2H)-one] | 0.06 | 1300 | –
– | – | OC(COc1ccccc1)CN1CCC2(CCc3ccccc3O2)CC1 (stereo not shown) [Example 439, 1-phenoxy-3-(spiro[chromane-2,4′-piperidin]-1′-yl)propan-2-ol] | 0.01 | 500 | –
– | – | COc1ccc2c(c1)C(CN1CCC(OCc3ccc(F)cc3)CC1)CC2 (stereo not shown) [Example 247, 4-((4-fluorobenzyl)oxy)-1-((6-methoxy-2,3-dihydro-1H-inden-1-yl)methyl)piperidine] | 0.1 | 270 | –
– | – | OC(COC1CCCCC1)CN1C[C@@H]2C[C@H](C1)N(c1ccccc1)C2 (stereo partly drawn) [Example 331, 1-(cyclohexyloxy)-3-((1S,5R)-6-phenyl-3,6-diazabicyclo[3.2.1]octan-3-yl)propan-2-ol] | 1.64 | 310 | –
– | – | O=C1CCC(c2ccc(F)cc2)=NN1CN1CCN(c2cccc(Cl)c2)CC1 [Example 62, 2-((4-(3-chlorophenyl)piperazin-1-yl)methyl)-6-(4-fluorophenyl)-4,5-dihydropyridazin-3(2H)-one] | 0.05 | 5270 | –
– | – | O[C@@H](COC1CCCCC1)CN1[C@@H]2CC[C@H]1CN(c1ccccc1)C2 [Example 288, (R)-1-(cyclohexyloxy)-3-((1R,5S)-3-phenyl-3,8-diazabicyclo[3.2.1]octan-8-yl)propan-2-ol] | – | 440 | 0.04
6 | – | c1ccc2c(c1)CCC1(CCN(CCC3Cc4cccnc4C3)CC1)O2 (stereo not shown) [Example 419, 1′-(2-(6,7-dihydro-5H-cyclopenta[b]pyridin-6-yl)ethyl)spiro[chromane-2,4′-piperidine]] | 0.22 | – | –
-4 | – | c1ccc2c(c1)CCC2CN1CCC2(CCc3ncccc3O2)CC1 (stereo not shown) [Example 403, 1-((2,3-dihydro-1H-inden-1-yl)methyl)-3′,4′-dihydrospiro[piperidine-4,2′-pyrano[3,2-b]pyridine]] | 0.004 | – | –
-2 | – | N#Cc1ccc(OC2CCN(CC3CCOc4ccccc43)CC2)cc1 (stereo not shown) [Example 166, 4-((1-(chroman-4-ylmethyl)piperidin-4-yl)oxy)benzonitrile] | 0.31 | – | –
– | – | c1ccc(O[C@H]2COC3(C2)CN(C[C@H]2CCc4ccccc42)C3)cc1 (single isomer, unassigned) [Compound 365] | 0.22 | 2180 | –
– | – | Fc1ccc(O[C@H]2CCN(CC3COCc4ccccc43)C2)cc1 (stereo partly drawn) [Example 12, (3S)-3-(4-fluorophenoxy)-1-(isochroman-4-ylmethyl)pyrrolidine] | 0.3 | 3230 | –
– | 64 | COc1ccc2c(c1)C(CN1CC3(CC(Oc4ccc(F)cc4)CO3)C1)CC2 (stereo not shown) [Example 369, 7-(4-fluorophenoxy)-2-((6-methoxy-2,3-dihydro-1H-inden-1-yl)methyl)-5-oxa-2-azaspiro[3.4]octane] | 0.29 | – | –
– | – | c1ccc(O[C@@H]2COC3(CCN(C[C@@H]4CCc5ccccc54)CC3)C2)cc1 (single isomer, unassigned) [Compound 383] | 0.34 | 110 | –
2 | – | Fc1ccc(OC2CCCCN(CC3CCc4ccccc43)C2)cc1 (stereo not shown) [Example 275, 1-((2,3-dihydro-1H-inden-1-yl)methyl)-3-(4-fluorophenoxy)azepane] | 0.4 | – | –

SMILES | inhibition at 1 µM [1] [%] | inhibition at 10 µM [1] [%] | IC50 ([2]; read-out: 5HT2A IC50) [µM] | IC50 [1] [nM] | IC50 ([2]; 5HT2A IC50, μM) [µM]
OC(CO[C@@H]1CCc2ccccc21)CN1CC[C@H](Oc2ccc(F)cc2)C1 (stereo partly drawn) [Example 45, 1-(((R)-2,3-dihydro-1H-inden-1-yl)oxy)-3-((S)-3-(4-fluorophenoxy)pyrrolidin-1-yl)propan-2-ol] | – | 85 | 0.61 | – | –
O[C@H](COc1ccccc1)CN1CCC2(CCc3ccccc3O2)CC1 [Example 440, (S)-1-phenoxy-3-(spiro[chromane-2,4′-piperidin]-1′-yl)propan-2-ol] | -8 | – | 0.08 | – | –
